Where two headings read alike, the source gives them in different places.
Experiments:
HLA-DR2b molecules = biological target: T1, HLA-DR2b molecules (Homo sapiens, UniProt P01903+P01911); assay: competitive ELISA (dissociation-enhanced lanthanide fluoroimmunoassay) with biotinylated CLIP 97-120 as tracer on purified DR2b molecules; type: binding
T1 construct: made in house; host or cells: L cells co-transfected with HLA-DRA and HLA-DRB1*1501
From the text: DR2b molecules were purified from L cells that had been co-transfected with HLA-DRA and HLA-DRB1*1501, by affinity chromatography using the HLA-DR-specific L243 antibody, as described in Weissert et al. (2001), MHC class II-regulated central nervous system autoaggression and T cell responses in peripheral lymphoid tissues are dissociated in myelin oligodendrocyte glycoprotein-induced experimental autoimmune encephalomyelitits, J. Immunol. 166, 7588-7599. The above publication is incorporated into the present application by reference. The binding assays were performed with a competitive ELISA based on a dissociation-enhanced lanthanide fluoroimmunoassay (Wallac, Turku, Finland). For the competitive ELISA, a 50 nM solution of DR2b molecules was incubated for 48 hours at 37° C. with 50 nM biotinylated CLIP 97-120 in the presence of 250 nM acetylated nonapeptide amide sublibrary or with various concentrations of competitor peptides ranging from 1 nM to 100 μM. The IC50 of a peptide was defined as the concentration of peptide that was required for a 50% inhibition of the binding of the tracer peptide. […]

[1] = system: 08073 T cell hybridoma co-incubated with HLA-DR2b-transfected L466 cells; assay: blocking of MBP 85-99 induced IL-2 secretion by high-affinity ligands for DR2b; type: cell-based, mouse; conditions: 1 μg/ml MBP 85-99, 10 μg/ml peptide, 24 hours; FIG. 1
Method: L466 cells and 08073 cells, which were transfected with HLA-DR2b, were co-incubated in the presence of 1 μg/ml MBP 85-99 and 10 μg/ml of various HLA-DR2b peptides; “kein Komp.”=no peptide according to the invention in the batch. After 24 hours the supernatant was collected and the amount of IL-2 present in the supernatant was measured in a mouse-specific IL-2-ELISA.
L466 cells and 08073 cells that were transfected with HLA-DR2b were co-incubated in the presence of 1 μg/ml MBP 85-99 and 10 μg/ml of the HuPb28-variants. After 24 hours the supernatant was collected and the amount of IL-2 present in the supernatant was measured using a mouse-specific IL-2-ELISA.
A T cell hybridoma (08073), which expresses the T cell receptor that is specific for MBP 85-99, which is presented by HLA-DR2b, was provided. After stimulation with MBP 85-99, presented by HLA-DR2b-transfected L466 cells, the 08073 cells secreted significant amounts of IL-2. 5×10^4 08073 cells were co-incubated for 24 hours with 5×10^4 HLA-DR2b-transfected L466 cells in RPMI medium (Invitrogen, Pailey, United Kingdom)/2% FCS (PAA, Linz, Austria)/100 U/ml penicillin, 100 μg/ml streptomycin, 2 mM glutamine (all from Invitrogen) in the presence of 1 μg/ml […] with or without high-affinity peptides (10 μg/ml). The amounts of IL-2 that were secreted in the supernatant were detected using a mouse-IL-2-specific ELISA (BD Biosciences Pharmingen, San Diego, Calif., United States of America).

HLA-DR2b-transgenic mice = assay: MOG 35-55-induced EAE, co-immunization experiment; type: in vivo, mouse
Method: DR2b mice were immunized with the MOG 35-55 peptide in CFA (n=8) or co-immunized with MOG 35-55 and the HuPb11 peptide (SEQ ID No. 17) (n=8) or MOG 35-55 and HuPb28 peptide (SEQ ID No. 9) (n=9). Pertussis toxin (PTX) was administered i.p. on days 0 and 2. The mice were measured daily for EAE and weighed.
The following classifications were used: 0, no disease; 1, weakness or paralysis of the tail; 2, weakness of the hind legs; 3, paralysis of the hind legs; 4, paralysis of the front and hind legs; 5, moribund or death caused by disease.

[2] = acetylated nonapeptide amides, 48 hours at 37° C., 50 nM DR2b, 50 nM biotinylated CLIP 97-120, read-out: IC50 for binding to HLA-DR2b molecules

Row | Substance | IC50 (HLA-DR2b molecules; [2]) [nM] | IL-2 secretion after stimulation of 08073 cells with MBP 85-99 [1] | other results
1 | Ac-MIYWYSNWL-NH2 [HuPb30, MIYWYSNWL] | < 1 | only a slight reduction in IL-2 secretion | 
2 | Ac-FILIYSNLF-NH2 [HuPb29, FILIYSNLF] | 2 |  | 
3 | Ac-MIDWYSSWP-NH2 [HuPb34, MIDWYSSWP] | 1 |  | 
4 | Ac-MIYWYNSWL-NH2 [HuPb31, MIYWYNSWL] | < 1 | significantly reduce IL-2 secretion | 
5 | Ac-LLYWYSSWP-NH2 [HuPb27, LLYWYSSWP] | < 1 | only a slight reduction in IL-2 secretion | 
6 | Ac-LILYYYYYL-NH2 [HuPb23, LILYYYYYL] |  |  | affinity for HLA-DR2b in words (HLA-DR2b molecules): moderate affinity
7 | Ac-PYEAQELHE-NH2 [HuPb14, PYEAQELHE] | > 100000 |  | 
8 | Ac-DIYWYSSWP-NH2 [HuPb32, DIYWYSSWP] | < 1 | significantly reduce IL-2 secretion | 
9 | Ac-MIYWYSSWD-NH2 [HuPb33, MIYWYSSWD] | 1 |  | 
10 | Ac-MLIYYSSYL-NH2 [HuPb28, MLIYYSSYL] | < 1 | significantly reduce IL-2 secretion | clinical EAE symptoms (HLA-DR2b-transgenic mice; co-administration of 200 μg peptide with 300 μg MOG 35-55 in CFA at immunization): reduced the clinical EAE symptoms; EAE sum value (HLA-DR2b-transgenic mice; co-immunized with MOG 35-55 and peptide, n=9, p<0.05, FIG. 3): reduction in the sum value
11 | Ac-LILWYSSWP-NH2 [HuPb26, LILWYSSWP] | 1 |  | 
12 | Ac-LIYWYSSWL-NH2 [HuPb22, LIYWYSSWL] | 2 |  | 
13 | Ac-MIYWYSSWL-NH2 [HuPb20, MIYWYSSWL] | 1 |  | 
14 | Ac-KGESGFRDR-NH2 [HuPb17, KGESGFRDR] |  | did not show any effect | IC50 (HLA-DR2b molecules): > 100000 nM
15 | Ac-GPPERLEFR-NH2 [HuPb19, GPPERLEFR] | > 100000 | did not show any effect | 
16 | Ac-LILWYSSWL-NH2 [HuPb24, LILWYSSWL] | 2 |  | 
17 | Ac-WGLPEHLER-NH2 [HuPb11, WGLPEHLER] | > 100000 |  | 
18 | Ac-MIYWYSSWI-NH2 [HuPb21, MIYWYSSWI] | 1 |  | 
